Data taken from patent publication US7750011B2, “Diazabicyclic aryl derivatives and their medical use” (Neurosearch A/S, priority 2005, dated 2010).
Where a name gives a salt, the structure may show the parent alone.

Target: T1, α7-subtype of nicotinic receptors (Rattus norvegicus, UniProt Q05941)
T1 construct: Cerebral cortices from male Wistar rats (150-250 g) are homogenised; from tissue; host or cells: rat cerebral cortex membrane homogenate (male Wistar rats)
Assay: In vitro inhibition of 3H-α-bungarotoxine binding in rat brain
Conditions: rat cerebral cortex homogenate; 3H-α-bungarotoxine 2 nM; 2 hours at 37° C

T1 sequence (Q05941 23-502): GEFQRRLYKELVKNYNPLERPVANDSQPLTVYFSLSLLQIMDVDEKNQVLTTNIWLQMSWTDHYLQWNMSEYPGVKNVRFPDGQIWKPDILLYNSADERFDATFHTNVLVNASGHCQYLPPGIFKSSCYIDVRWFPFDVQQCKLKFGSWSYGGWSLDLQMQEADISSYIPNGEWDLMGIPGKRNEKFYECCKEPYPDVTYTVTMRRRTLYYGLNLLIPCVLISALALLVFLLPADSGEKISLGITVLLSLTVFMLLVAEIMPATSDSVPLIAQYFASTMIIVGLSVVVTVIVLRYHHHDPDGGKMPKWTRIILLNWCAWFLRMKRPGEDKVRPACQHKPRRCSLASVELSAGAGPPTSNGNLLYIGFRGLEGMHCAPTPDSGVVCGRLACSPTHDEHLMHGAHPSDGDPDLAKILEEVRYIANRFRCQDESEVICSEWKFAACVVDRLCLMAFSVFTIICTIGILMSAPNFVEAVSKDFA

CN1C[C@@H]2C[C@H]1CN2c1ccc(C#Cc2ccccc2)nn1 [Compound 2, 2-Methyl-5-(6-phenylethynyl-pyridazin-3-yl)-(1S,4S)-2,5-diaza-bicyclo[2.2.1]heptane fumaric acid salt]
IC50: 2000 nM
